Reference: patent US20250368616A1, “NITROGEN-CONTAINING HETEROCYCLIC DERIVATIVE INHIBITOR, AND PREPARATION METHOD THEREFOR AND USE THEREOF” (SHANGHAI HANSOH BIOMEDICAL CO., LTD., priority 2021, published 2025)

Each compound was assayed on Ba/F3 EGFR Del19/C797S cells (assay: Cell proliferation inhibition assay (Cell Titer-Glo), Ba/F3 EGFR Del19/C797S). Settings: 72 hours, read-out: Ba/F3 EGFR Del19_C797S IC50.
Type: cell-based
Source text: Test Example 2: Cell Proliferation Inhibition Assay
Experimental objective: The objective of this test example is to test the inhibitory activity of compounds on the proliferation of different EGFR C797S drug-resistant mutant cell lines Ba/F3 EGFR Del19/T790M/C797S, Ba/F3 EGFR L858R/T790M/C797S, and Ba/F3 EGFR Del19/C797S.
• Ba/F3 EGFR Del19/T790M/C797S cells were purchased from KYinno Biotechnology Co., Ltd.; • Ba/F3 EGFR Del19/C797S cells were purchased from CoBioer Biosciences Co., Ltd.; • Ba/F3 EGFR L858R/T790M/C797S cells were purchased from CoBioer Biosciences Co., Ltd.; • Cell Titer-Glo was purchased from Promega, with a catalog number of G7573; • RPMI 1640 was purchased from Gibco, with a catalog number of 22400089; • FBS was purchased from Gibco, with a catalog number of 10091148; • cell culture plates were purchased from Corning, with a catalog number of 3610.
The inhibitory activity of the compound on the proliferation of different EGFR C797S drug-resistant mutant cell lines was detected using the Cell Titer-Glo method. The different cell lines were cultured in RPMI 1640 complete culture medium containing 10% FBS under conditions of 37° C. and 5% CO2, the cells were collected by centrifugation when growing to a certain density, and adjusted to appropriate cell density after counting, the cells were spread on a white 96-well plate at 90 μL/well, and cultured in a 37° C., 5% CO2 incubator overnight, prepared compound solutions of different concentrations were added at 10 μL/well, corresponding solvent controls were set, and all wells were cultured in a 37° C., 5% CO2 incubator for 72 hours, 50 μL of CellTiter-Glo solution was added to each well, shook and mixed evenly, and incubated in the dark for 10 minutes, and a BioTek Synergy H1 microplate reader was used for reading.
The luminescence signal value was used to calculate the inhibition rate. Graphpad Prism software was used to fit the concentration and inhibition rate to a nonlinear regression curve, so as to obtain the IC50 value, as shown in Tables 3 and 4 below for details.

Compound	IC50 [nM]
CC(C)c1ccc(N2C[C@H](CS(C)(=O)=O)[C@H]2C)c2cnc(Nc3ccnc(-c4c[nH]nc4Cl)n3)cc12 [Example 10, N-(2-(3-chloro-1H-pyrazol-4-yl)pyrimidin-4-yl)-5-isopropyl-8-((2R,3S)-2-methyl-3-((methanesulfonyl)methyl)azetidin-1-yl)isoquinolin-3-amine]	60
CC(C)c1ccc(N2C[C@H](CS(C)(=O)=O)[C@H]2C)c2cnc(Nc3ccnc(-c4cnn(C5CC5(F)F)c4)n3)cc12 (stereo partly drawn) [Example 12, N-(2-(1-(2,2-difluorocyclopropyl)-1H-pyrazol-4-yl)pyrimidin-4-yl)-5-isopropyl-8-((2R,3S)-2-methyl-3-((methanesulfonyl)methyl)azetidin-1-yl)isoquinolin-3-amine]	56
CC(C)c1ccc(N2C[C@H](CS(C)(=O)=O)[C@H]2C)c2cnc(Nc3ccnc(-c4cnn(C5(C#N)CC5)c4)n3)cc12 [Example 13, 1-(4-(4-((5-isopropyl-8-((2R,3S)-2-methyl-3-((methanesulfonyl)methyl)azetidin-1-yl)isoquinolin-3-yl)amino)pyrimidin-2-yl)-1H-pyrazol-1-yl)cyclopropane-1-carbonitrile]	82
CC(C)c1ccc(N2C[C@H](CS(C)(=O)=O)[C@H]2C)c2cnc(Nc3ccnc(-c4cnn([C@@H](C)C(F)(F)F)c4)n3)cc12 [Example 22A, 5-isopropyl-8-((2R,3S)-2-methyl-3-((methanesulfonyl)methyl)azetidin-1-yl)-N-(2-(1-((S)-1,1,1-trifluoropropan-2-yl)-1H-pyrazol-4-yl)pyrimidin-4-yl)isoquinolin-3-amine]	95
CC(C)c1ccc(N2C[C@H](CS(C)(=O)=O)[C@H]2C)c2cnc(Nc3ccnc(-c4cnn(C5(CF)CC5)c4)n3)cc12 [Example 29, N-(2-(1-(1-(fluoromethyl)cyclopropyl)-1H-pyrazol-4-yl)pyrimidin-4-yl)-5-isopropyl-8-((2R,3S)-2-methyl-3-((methanesulfonyl)methyl)azetidin-1-yl)isoquinolin-3-amine]	64
CC(C)c1c(F)cc(N2C[C@H](CS(C)(=O)=O)[C@H]2C)c2cnc(Nc3ccnc(-c4cnn(C)c4)n3)cc12 [Example 39, 6-fluoro-5-isopropyl-N-(2-(1-methyl-1H-pyrazol-4-yl)pyrimidin-4-yl)-8-((2R,3S)-2-methyl-3-((methanesulfonyl)methyl)azetidin-1-yl)isoquinolin-3-amine]	73
CC(C)c1ccc(N2CC(CC#N)C2)c2cnc(Nc3ccnc(-c4cnn(S(=O)(=O)C5CC5)c4)n3)cc12 [Example 40, 2-(1-(3-((2-(1-(cyclopropylsulfonyl)-1H-pyrazol-4-yl)pyrimidin-4-yl)amino)-5-isopropylisoquinolin-8-yl)azetidin-3-yl)acetonitrile]	70
COC1(n2cc(-c3nccc(Nc4cc5c(C(C)C)ccc(N6C[C@H](CS(C)(=O)=O)[C@H]6C)c5cn4)n3)cn2)CC1 [Example 49, 5-isopropyl-N-(2-(1-(1-methoxycyclopropyl)-1H-pyrazol-4-yl)pyrimidin-4-yl)-8-((2R,3S)-2-methyl-3-((methanesulfonyl)methyl)azetidin-1-yl)isoquinolin-3-amine]	41
CC(C)c1ccc(N2C[C@H](CS(C)(=O)=O)[C@H]2C)c2cnc(Nc3ccnc(-c4cnn(C5(CC#N)CC5)c4)n3)cc12 [Example 50, 2-(1-(4-(4-((5-isopropyl-8-((2R,3S)-2-methyl-3-((methanesulfonyl)methyl)azetidin-1-yl)isoquinolin-3-yl)amino)pyrimidin-2-yl)-1H-pyrazol-1-yl)cyclopropyl)acetonitrile]	51
C=CCn1cc(-c2nccc(Nc3cc4c(C(C)C)ccc(N5C[C@H](CS(C)(=O)=O)[C@H]5C)c4cn3)n2)cn1 [Example 51, N-(2-(1-allyl-1H-pyrazol-4-yl)pyrimidin-4-yl)-5-isopropyl-8-((2R,3S)-2-methyl-3-((methanesulfonyl)methyl)azetidin-1-yl)isoquinolin-3-amine]	41
CC#CCn1cc(-c2nccc(Nc3cc4c(C(C)C)ccc(N5C[C@H](CS(C)(=O)=O)[C@H]5C)c4cn3)n2)cn1 [Example 52, N-(2-(1-(but-2-yn-1-yl)-1H-pyrazol-4-yl)pyrimidin-4-yl)-5-isopropyl-8-((2R,3S)-2-methyl-3-((methanesulfonyl)methyl)azetidin-1-yl)isoquinolin-3-amine]	49
C#CCn1cc(-c2nccc(Nc3cc4c(C(C)C)ccc(N5C[C@H](CS(C)(=O)=O)[C@H]5C)c4cn3)n2)cn1 [Example 53, 5-isopropyl-8-((2R,3S)-2-methyl-3-((methanesulfonyl)methyl)azetidin-1-yl)-N-(2-(1-(prop-2-yn-1-yl)-1H-pyrazol-4-yl)pyrimidin-4-yl)isoquinolin-3-amine]	49

The remaining lines, values ahead:

IC50 [nM]	Compound
25	CC(C)c1ccc(N2C[C@H](CS(C)(=O)=O)[C@H]2C)c2cnc(Nc3ccnc(-c4cn(C)nc4C#N)n3)cc12 [Example 55, 4-(4-((5-isopropyl-8-((2R,3S)-2-methyl-3-((methanesulfonyl)methyl)azetidin-1-yl)isoquinolin-3-yl)amino)pyrimidin-2-yl)-1-methyl-1H-pyrazole-3-carbonitrile]
10	CC(C)c1ccc(N2C[C@H](CS(C)(=O)=O)[C@H]2C)c2cnc(Nc3ccnc(-c4cn(C)nc4C(F)(F)F)n3)cc12 [Example 56, 5-isopropyl-8-((2R,3S)-2-methyl-3-((methanesulfonyl)methyl)azetidin-1-yl)-N-(2-(1-methyl-3-(trifluoromethyl)-1H-pyrazol-4-yl)pyrimidin-4-yl)isoquinolin-3-amine]
26	CCc1nn(C)cc1-c1nccc(Nc2cc3c(C(C)C)ccc(N4C[C@H](CS(C)(=O)=O)[C@H]4C)c3cn2)n1 [Example 57, N-(2-(3-ethyl-1-methyl-1H-pyrazol-4-yl)pyrimidin-4-yl)-5-isopropyl-8-((2R,3S)-2-methyl-3-((methanesulfonyl)methyl)azetidin-1-yl)isoquinolin-3-amine]
52	Cc1nn(CCO)cc1-c1nccc(Nc2cc3c(C(C)C)ccc(N4C[C@H](CS(C)(=O)=O)[C@H]4C)c3cn2)n1 [Example 58, 2-(4-(4-((5-isopropyl-8-((2R,3S)-2-methyl-3-((methanesulfonyl)methyl)azetidin-1-yl)isoquinolin-3-yl)amino)pyrimidin-2-yl)-3-methyl-1H-pyrazol-1-yl)ethan-1-ol]
62	CC(C)c1ccc(N2C[C@H](CS(C)(=O)=O)[C@H]2C)c2cnc(Nc3ccnc(-c4cn(CCO)nc4C(F)(F)F)n3)cc12 [Example 59, 2-(4-(4-((5-isopropyl-8-((2R,3S)-2-methyl-3-((methanesulfonyl)methyl)azetidin-1-yl)isoquinolin-3-yl)amino)pyrimidin-2-yl)-3-(trifluoromethyl)-1H-pyrazol-1-yl)ethan-1-ol]
26	Cc1nn(C)cc1-c1nccc(Nc2cc3c(C(C)C)ccc(N4CC(NS(C)(=O)=O)C4)c3cn2)n1 [Example 60, N-(1-(3-((2-(1,3-dimethyl-1H-pyrazol-4-yl)pyrimidin-4-yl)amino)-5-isopropylisoquinolin-8-yl)azetidin-3-yl)methanesulfonamide]
